Data set [1] concerns HBEpC bronchial epithelial primary cells. As to the kind of experiment: Western blotting of whole cell extracts. In kind it is cell-based, human. As to the method:
(§1) In addition, whole cell extracts (WCE) were prepared by cell lysis in modified RIPA buffer (50 mmol/L Tris-Cl pH 7.4, 300 mmol/L NaCl, 0.1% NP40, 1% Triton X-100, 0.5% sodium deoxycholate, 0.1% SDS, 5 mmol/L EDTA, 1 mmol/L EGTA, 100 mmol/L sodium fluoride and 1 mmol/L sodium orthovanadate) followed by sonication for 10 seconds. These were analysed by Western Blotting, in which fifty micrograms of protein was loaded in each lane, separated by 4-20% SDS-PAGE, and transferred by semidry electroblotting onto Hybond C Extra nitrocellulose membranes (GE Healthcare, Buckinghamshire, UK).
(§2) Primary antibodies used were: caspase 3 (NB500-210, Novus Biologicals); caspase 9 (sc-17784, Santa Cruz Biotechnology); Cdc7 (K0070-3, MBL International); cyclin A (sc-596, Santa Cruz Biotechnology); cyclin E (MS-870-P, NeoMarkers); Mcm2 pS53 (A300-756A, Bethyl Laboratories); PCNA (610665, BD Biosciences); Rb (554136, BD Biosciences); Rb pS807/811 (9308, Cell Signaling Technologies); TBP (A301-229A, Bethyl Laboratories).
(§3) Blocking, antibody incubations (using various antibodies including anti-Cdc7 or anti-Mcm2 pS53 antibodies), and washing steps were performed.
(§4) Cells were harvested and apoptosis was monitored by phase contrast microscopy, flow cytometry and western blot detection of pro-caspase 3 and 9 cleavage.

For data set [2], the system named is IMR90 mesenchymal diploid fibroblasts. The experiment in a line: Western blotting of whole cell extracts. In kind it is cell-based, human. As to the method:
as §1, §2, §3, §4

Data set [3] concerns HBEpC cells. The experiment in a line: Apoptosis monitored by phase contrast microscopy. In kind it is cell-based, human. As to conditions: siRNA (CDC7 or control) 48 hours prior to 500 nM paclitaxel for 24 hours. On the procedure: (§5) To test this hypothesis, HBEpC bronchial epithelial cells and IMR90 mesenchymal fibroblasts were transfected with CDC7-siRNA or control-siRNA 48 hours prior to treatment with 500 nM paclitaxel or DMSO and then cultured for a further 24 hours. Cells were harvested and apoptosis was monitored by phase contrast microscopy, flow cytometry and western blot detection of pro-caspase 3 and 9 cleavage.

Data set [4] concerns IMR90 cells. The experiment in a line: Apoptosis monitored by phase contrast microscopy. In kind it is cell-based, human. Particulars: siRNA (CDC7 or control) 48 hours prior to 500 nM paclitaxel for 24 hours. On the procedure:
as §5

For data set [5], the system named is HBEpC cells. The experiment in a line: Flow cytometry of DNA content (cell cycle, sub G1). Format: cell-based, human. On the procedure:
(§6) After 24 hours medium was removed and cells were retransfected with control (20 nmol/L), CDC7 (10 nmol/L) plus control (10 nmol/L), or CDC7 (10 nmol/L) plus p53 (9 nmol/L duplex plus 1 nmol/L SMARTpool) siRNA mixtures. Cells were harvested at the indicated time points after the second transfection. Efficient knockdown was assessed by qRT-PCR and/or Western blot.
as §5

Data set [6] has as its system IMR90 cells. The experiment in a line: Flow cytometry of DNA content (cell cycle, sub G1). Format: cell-based, human. On the procedure:
as §6, §5

Data set [7] relates to SKOV-3, Saos-2, BT-549 and NCI-H322M cells. As to the kind of experiment: Apoptosis by morphology and western blot of pro-caspase 3 and 9 cleavage in cancer cells. In kind it is cell-based. As to conditions: 96 hours post-transfection; cancer cells lacking functional p53. On the procedure:
On this basis, RNAi was then used to investigate the effects of Cdc7 loss in epithelial and mesenchymal cancer cell lines deficient in functional p53. In this experiment, SKOV-3 ovarian carcinoma cells (HTB-77, ATCC) and Saos-2 osteosarcoma cells (HTB-85, ATCC) in McCoy's 5A medium (26600, Invitrogen) supplemented with 15% FBS, BT-549 mammary ductal carcinoma cells (HTB-122, ATCC) in RPMI-1640 medium (52400, Invitrogen) supplemented with 10% FBS and 10 μg/ml insulin (10516, Sigma); and NCI-H322M bronchioalveolar carcinoma cells (95111734, ECACC) in RPMI-1640 medium were used.
Cells were transfected with siRNA as described in Example 1 and the effects on mRNA expression, western blotting and cell population growth were assessed also as described in Example 1.
On the technique in general: Immunoblotting shows a protein as a band on a membrane.

In another data set the test system is CDC7 mRNA in HBEpC cells. The experiment in a line: qRT-PCR of CDC7 mRNA after CDC7-siRNA transfection. As to conditions: 72 hours post-transfection, 25 nM siRNA. In kind it is cell-based, human. An excerpt: (§7) Cells were then transfected with CDC7-siRNA to inhibit CDC7 expression. Specifically, CDC7 expression was inhibited with custom double-stranded RNA oligos (5′-[…]-3′ (SEQ ID NO 1) and 5′-[…]-3′ (SEQ ID NO 2) Thermo Scientific), using previously described methods (Tudzarove S. et al 2010 supra.). Non-targeting siRNA was used as a negative control (12935-300, Invitrogen). CDC7 or control siRNA duplexes were transfected using Lipofectamine 2000 (11668019, Invitrogen) according to the manufacturer's recommendations at an optimized concentrations of 10 nM for IMR90 and 25 nM for HBEpC.
(§8) At 72 hours post-transfection, CDC7 mRNA levels were measured using qPCR in order to evaluate the efficiency of transfection with CDC7. In particular, Total RNA was isolated from cells with the PureLink Microto-Midi Total RNA Purification System (Invitrogen) according to the manufacturer's instructions. Total RNA (40 ng) was reverse transcribed, and real-time PCR was performed using a SuperScript III Platinum SYBR Green OneStep qRTPCR kit (Invitrogen) following the manufacturer's instructions. Reactions were carried out in an Eppendorf Mastercycler ep Realplex Real-Time PCR System (Eppendorf, Cambridge, UK), and results were analyzed with Realplex v1.5 software (Eppendorf). […]

The subject of a further data set is CDC7 mRNA in IMR90 cells. As to the kind of experiment: qRT-PCR of CDC7 mRNA after CDC7-siRNA transfection. In kind it is cell-based, human. Particulars: IMR90, 72 hours post-transfection, 10 nM siRNA.
Text: as §7, §8
For orientation: In qPCR the cycle at which signal appears reflects the starting amount.

The test system of data set [8] is HBEpC cells. As to the kind of experiment: Cell population growth by phase contrast microscopy. In kind it is cell-based, human. As to conditions: 144 hour time course, plateau 48 to 120 hours post-transfection. As to the method:
(§9) Phase contrast microscopy was performed over a period of 144 hours with an inverted Aziover 200m (Carl Zeiss, Welwyn Garden City, Uk) and Axiovision software to assess cell population growth.

Data set [9] relates to IMR90 cells. The description is as above. Particulars: IMR90, 144 hour time course; plateau 48 to 120 hours post-transfection. In kind it is cell-based, human. As to the method:
as §9

Where [10] appears, read: siRNA (CDC7 or control) 48 hours prior to 500 nM paclitaxel for 24 hours.
Where [11] appears, read: IMR90, siRNA (CDC7 or control) 48 hours prior to 500 nM paclitaxel for 24 hours.
The mark [12] stands for this setting: IMR90, 72 hours post-transfection.

Consider `CC(=O)O[C@H]1C(=O)[C@@]2(C)[C@H]([C@H](OC(=O)c3ccccc3)[C@]3(O)C[C@H](OC(=O)[C@H](O)[C@@H](NC(=O)c4ccccc4)c4ccccc4)C(C)=C1C3(C)C)[C@]1(OC(C)=O)CO[C@@H]1C[C@@H]2O` [paclitaxel], for which the “pro-caspase 3 and 9 levels” value in data set [1] (setting [10]) and in data set [2] (setting [11]) was “marked reduction” throughout. Moreover, the “cell morphology (apoptosis)” value in the data set with HBEpC cells [3] and in the data set with IMR90 cells [4] was “morphological signs of apoptosis” each time. Also, the “percentage of cells with less than 2C (sub G1) DNA content” value in the data set on HBEpC cells [5] (setting [10]) was 30%; in the data set with IMR90 cells [6] (setting [11]), 35%.

Consider “CDC7-siRNA: custom double-stranded RNA oligos (5′-GCUCAGCAGGAAAGGUGUUUU-3′ SEQ ID NO 1 and 5′-AACACCUUUCCUGCUGAGCUU-3′ SEQ ID NO 2) inhibiting CDC7 expression (RNA, backbone not given here)”, for which the “apoptosis (morphology, cleavage of pro-caspases 3 and 9 in WCE)” value in data set [7] was “Induction of apoptosis”. Further, the CDC7 protein levels result in [1] (72 hours post-transfection) and in data set [2] (setting [12]) was “undetectable” throughout. Besides, the “Mcm2 phosphorylation at Ser-53” value in data set [1] (72 hours post-transfection) and in data set [2] (setting [12]) was “abolished” in each case. Moreover, the “CDC7 mRNA levels reduced relative to control siRNA transfected (CO) cells” value with CDC7 mRNA in HBEpC cells was determined as 89%; in the data set on CDC7 mRNA in IMR90 cells it was 87%. Also, the “cell proliferation (cell numbers)” value with HBEpC cells [8] and with IMR90 cells [9] was “cessation of cell proliferation” throughout. In addition, the cell cycle distribution result with HBEpC cells [5] (72 hours post-transfection) and in the data set with IMR90 cells [6] (setting [12]) was “accumulation consistent with a G1 arrest” in each case. The “cells with less than 2C (sub G1) DNA content” value with HBEpC cells [5] (Cdc7-depleted alone) is “not detected”; in the data set on IMR90 cells [6] (IMR90, Cdc7-depleted alone) it was “not detected”.

Values taken from US20210236494A1, “THERAPEUTIC COMBINATION” (Oncologica UK Ltd., priority 2018, published 2021).
